Reference: patent publication US20250255867A1 (Kadmon Corporation, LLC, priority 2022, published 2025)

Settings: Cohort 3 400 mg QD

In the case of `CC(C)NC(=O)COc1cccc(-c2nc(Nc3ccc4[nH]ncc4c3)c3ccccc3n2)c1` [Belumosudil, 2-{3-[4-(1H-indazol-5-ylamino)-2-quinazolinyl]phenoxy}-N-(propan-2-yl) acetamide], the “Nasal congestion: Affected/At Risk” value is reported as 1/21, the “Nasal congestion: Affected/At Risk (%)” value is reported as “(4.76%)” and the “Nausea: # Events” value is reported as 12. The “Nausea: Affected/At Risk” value was 9/21, the “Nausea: Affected/At Risk (%)” value was “(42.86%)” and the “Neck pain: # Events” value was 0. The “Neck pain: Affected/At Risk” value was 0/21, the “Neck pain: Affected/At Risk (%)” value was “(0%)” and the “Nephrotic syndrome: # Events” value was 0. For the same molecule, the “Nephrotic syndrome: Affected/At Risk” value was 0/21, the “Nephrotic syndrome: Affected/At Risk (%)” value was “(0%)” and the “Neuropathy peripheral: # Events” value was 2. The “Neuropathy peripheral: Affected/At Risk” value was 1/21, the “Neuropathy peripheral: Affected/At Risk (%)” value was “(4.76%)” and the “Neutrophil count decreased: # Events” value was 1. For the same molecule, the “Neutrophil count decreased: Affected/At Risk” value was 1/21, the “Neutrophil count decreased: Affected/At Risk (%)” value was “(4.76%)” and the “Nocturia: # Events” value was 0. For the same molecule, the “Nocturia: Affected/At Risk” value was 0/21, the “Nocturia: Affected/At Risk (%)” value was “(0%)” and the “Non-cardiac chest pain: # Events” value was 1. The “Non-cardiac chest pain: Affected/At Risk” value was 1/21, the “Non-cardiac chest pain: Affected/At Risk (%)” value was “(4.76%)” and the “Obesity: # Events” value was 0. For the same molecule, the “Obesity: Affected/At Risk” value was 0/21, the “Obesity: Affected/At Risk (%)” value was “(0%)” and the “Oedema peripheral: # Events” value was 6. The “Oedema peripheral: Affected/At Risk” value was 6/21, the “Oedema peripheral: Affected/At Risk (%)” value was “(28.57%)” and the “Oedema: # Events” value was 0. For the same molecule, the “Oedema: Affected/At Risk” value was 0/21, the “Oedema: Affected/At Risk (%)” value was “(0%)” and the “Oesophageal ulcer: # Events” value was 0. For the same molecule, the “Oesophageal ulcer: Affected/At Risk” value was 0/21, the “Oesophageal ulcer: Affected/At Risk (%)” value was “(0%)” and the “Oral candidiasis: # Events” value was 0. The “Oral candidiasis: Affected/At Risk” value was 0/21, the “Oral candidiasis: Affected/At Risk (%)” value was “(0%)” and the “Oropharyngeal pain: # Events” value was 1. For the same molecule, the “Oropharyngeal pain: Affected/At Risk” value was 1/21, the “Oropharyngeal pain: Affected/At Risk (%)” value was “(4.76%)” and the “Orthopnoea: # Events” value was 0. The “Orthopnoea: Affected/At Risk” value was 0/21, the “Orthopnoea: Affected/At Risk (%)” value was “(0%)” and the “Osteonecrosis: # Events” value was 0. The “Osteonecrosis: Affected/At Risk” value was 0/21, the “Osteonecrosis: Affected/At Risk (%)” value was “(0%)” and the “Osteopenia: # Events” value was 0. For the same molecule, the “Osteopenia: Affected/At Risk” value was 0/21, the “Osteopenia: Affected/At Risk (%)” value was “(0%)” and the “Osteoporosis: # Events” value was 0. The “Osteoporosis: Affected/At Risk” value was 0/21, the “Osteoporosis: Affected/At Risk (%)” value was “(0%)” and the “Overdose: # Events” value was 0. For the same molecule, the “Overdose: Affected/At Risk” value was 0/21, the “Overdose: Affected/At Risk (%)” value was “(0%)” and the “Pain in extremity: # Events” value was 5. The “Pain in extremity: Affected/At Risk” value was 4/21, the “Pain in extremity: Affected/At Risk (%)” value was “(19.05%)” and the “Pain: # Events” value was 1. For the same molecule, the “Pain: Affected/At Risk” value was 1/21, the “Pain: Affected/At Risk (%)” value was “(4.76%)” and the “Palpitations: # Events” value was 1. The “Palpitations: Affected/At Risk” value was 1/21, the “Palpitations: Affected/At Risk (%)” value was “(4.76%)” and the “Paraesthesia: # Events” value was 1. The “Paraesthesia: Affected/At Risk” value was 1/21, the “Paraesthesia: Affected/At Risk (%)” value was “(4.76%)” and the “Participants with TEAE” value was 20 (95%) participants. The “Participants with TESAE” value was 13 (62%) participants, the “Pericardial effusion: # Events” value was 0 and the “Pericardial effusion: Affected/At Risk” value was 0/21. The “Pericardial effusion: Affected/At Risk (%)” value was “(0%)”, the “Peripheral coldness: # Events” value was 0 and the “Peripheral coldness: Affected/At Risk” value was 0/21. For the same molecule, the “Peripheral coldness: Affected/At Risk (%)” value was “(0%)”, the “Peripheral sensory neuropathy: # Events” value was 0 and the “Peripheral sensory neuropathy: Affected/At Risk” value was 0/21. The “Peripheral sensory neuropathy: Affected/At Risk (%)” value was “(0%)”, the “Phlebitis: # Events” value was 0 and the “Phlebitis: Affected/At Risk” value was 0/21. The “Phlebitis: Affected/At Risk (%)” value was “(0%)”, the “Photophobia: # Events” value was 2 and the “Photophobia: Affected/At Risk” value was 2/21. For the same molecule, the “Photophobia: Affected/At Risk (%)” value was “(9.52%)”, the “Platelet count decreased: # Events” value was 0 and the “Platelet count decreased: Affected/At Risk” value was 0/21. The “Platelet count decreased: Affected/At Risk (%)” value was “(0%)”, the “Pleural effusion: # Events” value was 1 and the “Pleural effusion: Affected/At Risk” value was 1/21. The “Pleural effusion: Affected/At Risk (%)” value was “(4.76%)”, the “Pneumonia respiratory syncytial viral: # Events” value was 0 and the “Pneumonia respiratory syncytial viral: Affected/At Risk” value was 0/21. The “Pneumonia respiratory syncytial viral: Affected/At Risk (%)” value was “(0%)”, the “Pneumonia: # Events” value was 0 and the “Pneumonia: Affected/At Risk” value was 0/21. For the same molecule, the “Pneumonia: Affected/At Risk (%)” value was “(0%)”, the “Pollakiuria: # Events” value was 0 and the “Pollakiuria: Affected/At Risk” value was 0/21. For the same molecule, the “Pollakiuria: Affected/At Risk (%)” value was “(0%)”, the “Presyncope: # Events” value was 0 and the “Presyncope: Affected/At Risk” value was 0/21. The “Presyncope: Affected/At Risk (%)” value was “(0%)”, the “Productive cough: # Events” value was 2 and the “Productive cough: Affected/At Risk” value was 1/21. The “Productive cough: Affected/At Risk (%)” value was “(4.76%)”, the “Proteinuria: # Events” value was 0 and the “Proteinuria: Affected/At Risk” value was 0/21. The “Proteinuria: Affected/At Risk (%)” value was “(0%)”, the “Pruritus: # Events” value was 0 and the “Pruritus: Affected/At Risk” value was 0/21. The “Pruritus: Affected/At Risk (%)” value was “(0%)”, the “Pseudomonas infection: # Events” value was 0 and the “Pseudomonas infection: Affected/At Risk” value was 0/21. The “Pseudomonas infection: Affected/At Risk (%)” value was “(0%)”, the “Pulmonary mass: # Events” value was 1 and the “Pulmonary mass: Affected/At Risk” value was 1/21. The “Pulmonary mass: Affected/At Risk (%)” value was “(4.76%)”, the “Pyrexia: # Events” value was 3 and the “Pyrexia: Affected/At Risk” value was 3/21. The “Pyrexia: Affected/At Risk (%)” value was “(14.29%)”, the “Rash erythematous: # Events” value was 0 and the “Rash erythematous: Affected/At Risk” value was 0/21. The “Rash erythematous: Affected/At Risk (%)” value was “(0%)”, the “Rash maculo-papular: # Events” value was 0 and the “Rash maculo-papular: Affected/At Risk” value was 0/21. The “Rash maculo-papular: Affected/At Risk (%)” value was “(0%)”, the “Rash pustular: # Events” value was 0 and the “Rash pustular: Affected/At Risk” value was 0/21. For the same molecule, the “Rash pustular: Affected/At Risk (%)” value was “(0%)”, the “Rash: # Events” value was 1 and the “Rash: Affected/At Risk” value was 1/21. The “Rash: Affected/At Risk (%)” value was “(4.76%)”, the “Red blood cells urine positive: # Events” value was 0 and the “Red blood cells urine positive: Affected/At Risk” value was 0/21. For the same molecule, the “Red blood cells urine positive: Affected/At Risk (%)” value was “(0%)” and the “Renal failure: # Events” value was 0.
